In experiment [1] the target is T1, recombinant activated p38alpha (Homo sapiens, UniProt Q16539).
T1 construct: purchased ProQinase
The experiment can be described thus: in vitro kinase assay p38 (ADP-Glo). The conditions noted are these: 100 μM ATP. The format is biochemical. As for the experimental part: (§1) Purified recombinant activated p38alpha (10 nM)(ProQinase) was preincubated 10 minutes at 30° C. with the compound of interest at concentrations between 1 and 100 μM in duplicate in a final volume of 30 μl of kinase buffer (Hepes 60 mM pH 7.5, MgCl2 3 mM, MnCl2 3 mM, sodium orthovanadate 3 μM, DTT 1.2 mM). After preincubation, peptide substrate (SignalChem #P03-58) and ATP were added to a final concentration of 10 μM and 100 μM respectively, and then incubated 40 minutes at 30° C. for the kinase reaction. Phosphorylation was analysed with ADP-Glo™ (Promega #V9101) and emitted luminescence was measured with BMG Fluostar microplate reader.
(In general: ADP-Glo turns the ADP formed in a reaction into a luminescent signal.)

Experiment [2] relates to recombinant activated JNK. The experiment is described as follows: in vitro kinase assay JNK (ADP-Glo). The format is biochemical. To be noted: 100 μM ATP. As for the experimental part: as §1, with “JNK” for “p38alpha”, “nM) (ProQinase)” for “nM)(ProQinase)”, “analyzed” for “analysed”
Experiment [3] has as its system TNF-α secretion by a human monocytic cell line, THP-1. The experiment is described as follows: Inhibition of TNF-α secretion by LPS-stimulated THP-1 cells (ELISA). It counts as cell-based. To be noted: LPS-stimulated THP-1, TNF-α. The method, then:
Thp1-Inhibition of TNF-α Secretion by a Human Monocytic Cell Line, THP-1
THP-1 cells, growing in log phase, were collected by centrifugation and resuspended in RPMI 1640 (Sigma Aldrich), to a final cell concentration of 2×10^6 cells/ml. Cells were plated into 24-well plates (BD Biosciences). Dilutions of compounds in dimethyl sulfoxide (DMSO) were added to the culture to a final concentration M. The final DMSO concentration was 0.5%. The cells […] suspensions were preincubated with compounds for 1 h at 37° C. in a 5% CO2 humidified atmosphere before the addition of LPS (Sigma Aldrich, L2654) to a g/ml. After that, cells were incubated for 3 h followed final concentration of […] by centrifugation to pellet cells. Cell supernatants were stored at 4° C. until human analysis for TNF-α content. TNF-α levels were determined by ELISA (TNF Biotrak, GE Healthcare) following the manufacturer's directions. The percentage inhibition was calculated for each compound concentration tested, and the IC50 was calculated for each compound.
A general note: ELISA stands for enzyme-linked immunosorbent assay.

Usually inhibition stands for the relative decrease from the control value, in per cent.

T1 sequence (Q16539 whole entry): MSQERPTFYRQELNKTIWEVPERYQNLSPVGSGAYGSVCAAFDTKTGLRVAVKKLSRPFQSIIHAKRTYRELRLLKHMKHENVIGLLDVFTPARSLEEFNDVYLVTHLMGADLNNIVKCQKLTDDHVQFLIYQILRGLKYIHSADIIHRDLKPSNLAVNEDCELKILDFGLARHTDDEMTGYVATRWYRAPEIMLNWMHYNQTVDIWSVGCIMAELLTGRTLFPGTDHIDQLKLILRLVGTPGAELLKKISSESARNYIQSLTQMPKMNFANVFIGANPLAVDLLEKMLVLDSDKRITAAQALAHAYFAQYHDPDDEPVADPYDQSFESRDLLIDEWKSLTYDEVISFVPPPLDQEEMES

Turning to `CCCOc1ccc(Nc2nc3nonc3nc2N2CCC(Oc3ccc(Cl)cc3)CC2)cc1` [Comp 1], the inhibition at 1 µM in experiment [1] (1 μM compound) came out at 37%; in experiment [3] (1 μM compound, read-out: % of inhibition at 1 μM, THP1), 51%. Besides, the inhibition at 10 µM in experiment [1] (10 μM compound) was determined as 99%; in experiment [3] (10 μM compound, read-out: % of inhibition at 10 μM, THP1), 74%. Besides, the “% of inhibition at 1 μM, JNK” value in experiment [2] (1 μM compound) was determined as 49%. Further, the “% of inhibition at 10 μM, JNK” value in experiment [2] (10 μM compound) amounted to 98%.

The values are drawn from patent US9908896B2, “P38 and JNK MAPK inhibitors for the treatment and prophylaxis of degenerative diseases of the nervous system” (ALLINKY BIOPHARMA, priority 2014, dated 2018).
